Measurements as given in article PMC7582476, “Discovery of Novel Indoleamine 2,3-Dioxygenase 1 (IDO1) and Histone Deacetylase 1 (HDAC1) Dual Inhibitors Derived from the Natural Product Saprorthoquinone” (Molecules, 2020).

How the values were obtained:
A549 cell line = experiment: Anti-proliferation assay in A549 cell line (CellTiter-Glo); type: cell-based; conditions: Homo sapiens; A549 cells, 48 h, CTG assay
Protocol: Cell viability was measured by the CellTiter-Glo Luminescent (CTG) assay. A549 cells (ATCC, Cat. No.CCL-185) were seeded (2000 cells/well) in 96-well plates and cells were left to incubate at 37 °C for 24 h. After 24 h, prepare compounds with 5-fold dilution in DMSO to the compound plate (200-fold of the final concentration) and transfer 5 μL from the compound plate to 95 μL intermediate medium in the intermediate plate (10-fold of the final concentration). Then transfer 10 μL from the intermediate plate to the cell plates. The final DMSO is 0.5%. After continuing to incubate for 48 h, add 50 μL CTG reagent to each well and read luminescence according to CTG product manual.

IDO1 = biological target: T1, IDO1 (Homo sapiens, UniProt P14902); experiment: IDO1 enzymatic assay; type: biochemical; conditions: for inhibition at 10 µM: Tables 2 and 3, read-out: IDO1 % Inhibition at 10 μM (converted); for IC50: mean ± SD of at least two independent assays
T1 construct: No. 20160706
T1 sequence (P14902 whole entry): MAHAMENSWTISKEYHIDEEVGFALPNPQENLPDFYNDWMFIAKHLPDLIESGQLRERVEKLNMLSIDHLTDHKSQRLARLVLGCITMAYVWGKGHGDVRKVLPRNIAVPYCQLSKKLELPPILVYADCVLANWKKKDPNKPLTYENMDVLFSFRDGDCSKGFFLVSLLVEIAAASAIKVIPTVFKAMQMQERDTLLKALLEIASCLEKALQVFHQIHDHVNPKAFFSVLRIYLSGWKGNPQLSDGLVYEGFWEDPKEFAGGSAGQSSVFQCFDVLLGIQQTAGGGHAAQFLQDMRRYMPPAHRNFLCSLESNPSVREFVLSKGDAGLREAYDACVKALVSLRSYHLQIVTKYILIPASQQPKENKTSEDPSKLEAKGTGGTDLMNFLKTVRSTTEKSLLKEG
Protocol: (1) Prepare 100× compound of the final desired highest inhibitor concentration in reaction by 100% DMSO. For example, if compounds test at 10 μM, then prepare 1 mM of compound solution in this step. Then dilute compound with DMSO in 3-fold mode to obtain different concentrations. Mark as source plate. (2) Add 100 μL of 100% DMSO to column 1 and column 12 for background control and no compound high control respectively.
Transfer 2 μL of each well from the 96-well source plate to a 96-well assay plate.
• (3) Enzyme Reaction • Prepare 2× enzyme solution. Add IDO-1 in assay buffer. • Prepare 2× substrate solution. Add L-tryptophan, ascorbate, methylene blue, catalase in the assay buffer. • Assay plate already contains 2 μL of compound in 100% DMSO. • Transfer 2× enzyme solution to the assay plate. Add 100 μL of 2× enzyme solution to each well of the 96-well assay plate. • Incubate at room temperature for 10 min. • Transfer […] to each well of the 96-well assay plate. • Read OD321 kinetically by Spectramax (Molecular Devices, LLC, San Jose, CA, USA). • (4) Curve Fitting • Copy data from Spectramax program. Percent inhibition = (max-conversion)/(max − min) × 100. “max” stands for high control; “min” stands for low control. • Fit the data in XL-Fit to obtain IC50 values. Equation used is: Y = Bottom + (Top − Bottom)/(1 + 10^((LogIC50 − X) × Hill Slope)

HDAC1 = biological target: T2, HDAC1 (Homo sapiens, UniProt Q13547); experiment: HDAC enzymatic assay; type: biochemical; conditions: mean ± SD of at least two independent assays
T2 construct: purchased BPS Bioscience Inc. 50051
T2 sequence (Q13547 whole entry): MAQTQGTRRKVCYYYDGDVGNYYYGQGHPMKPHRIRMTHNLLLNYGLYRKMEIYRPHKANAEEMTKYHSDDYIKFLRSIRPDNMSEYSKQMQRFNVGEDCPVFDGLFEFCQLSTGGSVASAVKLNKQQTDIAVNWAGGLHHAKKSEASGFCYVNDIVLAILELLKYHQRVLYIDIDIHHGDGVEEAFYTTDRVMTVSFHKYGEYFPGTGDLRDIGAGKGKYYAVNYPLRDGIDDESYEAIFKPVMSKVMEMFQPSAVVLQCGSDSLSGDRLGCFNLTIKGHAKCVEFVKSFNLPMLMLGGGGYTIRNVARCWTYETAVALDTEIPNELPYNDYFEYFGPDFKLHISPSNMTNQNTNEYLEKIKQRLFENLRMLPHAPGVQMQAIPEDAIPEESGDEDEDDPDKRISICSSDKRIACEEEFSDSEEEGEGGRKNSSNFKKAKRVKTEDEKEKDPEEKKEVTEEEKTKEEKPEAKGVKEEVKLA
Protocol: • (1) Prepare 1× assay buffer (modified Tris Buffer). • (2) Compound serial dilution: Transfer compounds to assay plate by Echo in 100% DMSO. The final fraction of DMSO is 1%. • (3) Prepare enzyme solution in 1× assay buffer. • (4) Add trypsin and Ac-peptide substrate in 1× assay buffer to make the substrate solution. • (5) Transfer 15 μL of enzyme solution to assay plate or for low control transfer 15 μL of 1× assay buffer. • (6) Incubate at room temperature for 15 min. • (7) Add 10 μL of substrate solution to each well to start reaction. • (8) Incubate at room temperature for 60 min. • (9) Read the plate on Synergy MX with excitation at 355 nm and emission at 460 nm. • (10) Curve fitting: Fit the data in Excel to obtain inhibition values using Equation (1).
Inh% = (Max − Signal)/(Max − Min) × 100(1)
Fit the data in XL-Fit to obtain IC50 values using Equation (2); Y = Bottom + (Top − Bottom)/(1 + 10^((LogIC50 − X) × Hill Slope))(2)
Y is %inhibition and X is compound concentration.

IC50 (A549 cell line)	inhibition at 10 µM (IDO1)	IC50 (IDO1)	IC50 (HDAC1)	SMILES
19.1 µM	80%	0.58 ± 0.11 µM	34.9 ± 0.75 µM	Cc1ccc2c(c1CCC(=O)NCCCC(=O)Nc1ccccc1N)C(=O)C(=O)C(C(C)C)=C2 [Compound 33b, N-(2-Aminophenyl)-4-(3-(6-isopropyl-2-methyl-7,8-dioxo-7,8-dihydronaphthalen-1-yl)propanamido)-butanamide]
> 20 µM	90%	0.55 ± 0.02 µM	39.5 ± 0.74 µM	Cc1ccc2c(c1CCC(=O)NCCCCC(=O)Nc1ccccc1N)C(=O)C(=O)C(C(C)C)=C2 [Compound 33c, N-(2-Aminophenyl)-5-(3-(6-isopropyl-2-methyl-7,8-dioxo-7,8-dihydronaphthalen-1-yl)propanamido)-pentanamide]
> 20 µM	82%	0.71 ± 0.03 µM	0.46 ± 0.07 µM	Cc1ccc2c(c1CCC(=O)NCCCCCC(=O)Nc1ccccc1N)C(=O)C(=O)C(C(C)C)=C2 [Compound 33d, N-(2-Aminophenyl)-6-(3-(6-isopropyl-2-methyl-7,8-dioxo-7,8-dihydronaphthalen-1-yl)propanamido) hexanamide]
